Laboratory results: patent publication US20110212083A1, “ROLE OF SOLUBLE UPAR IN THE PATHOGENESIS OF PROTEINURIC KIDNEY DISEASE” (University of Miami Office of Technology Transfer, priority 2008, published 2011)
“Also recorded” adds a separate entry of the source.

Tests used:
57BL/6 and Plaur−/− mice = assay: right kidney cross-transplantation with LPS treatment (TEM and uPAR immunostaining); assay type: in vivo, mouse; conditions: for foot process effacement (TEM): LPS 10 mg/kg i.p., 24 h
Protocol: Right kidney cross-transplantation: Six 57BL/6 female mice and 6 Plaur^−/− female mice in the same age and body weight ranges (7-8 weeks, 15-18 g) were randomly recruited into this study. The right kidney from Plaur^−/− mice were transplanted into 57BL/6 mice at the right side and vice versa. Kidney transplantation was performed as previously described (Coffman, T. et al, J. Immunol. 151, 425-435 (1993); Han, W. R., Murray-Segal, L. J. and Mottram, P. L. Microsurgery. 19, 272-274 (1999)). After recovery from surgery, mice were randomly treated with LPS at 10 mg/kg body weight, i.p. or same amount of PBS for control. 24 h after LPS injection, mice were sacrificed, and kidney was taken out for further analysis.
Transmission electron microscopy (TEM): TEM was performed according to the standard protocols (Sever, S. et al. J. Clin. Invest. 117, 2095-2104 (2007)).
To further confirm the role of suPAR in proteinuria development and kidney disease, cross-kidney transplantation was performed and the effect of endogenous soluble form of uPAR was examined. The right kidney was excised from normal 57BL/6, and transplanted into Plaur^−/− mice on the right side and vice versa (FIG. 3A). Mice were randomly chosen to receive lipopolysaccharide (LPS) to induce proteinuria or PBS for control after recovery from surgery. […] For the PBS treated 57BL/6 mice however, foot process effacement was not remarkable in either transplanted Plaur^−/− kidney or native 57BL/6 kidney (FIG. 1E). […] In contrast, foot process effacement was not remarkable in either native Plaur^−/− kidney or in the transplanted 57BL/6 kidney of PBS controlled mice (FIG. 1F). […] In order to determine whether suPAR is responsible for the phenomena, the sections were immunostained from both native and transplanted kidney with uPAR antibody.

αvβ3 integrin = conditions: in vivo; cited from earlier work

| Compound | foot process effacement (TEM) (57BL/6 and Plaur−/− mice; 57BL/6 mice, native 57BL/6 kidney) | foot process effacement (TEM) (57BL/6 and Plaur−/− mice; 57BL/6 mice, transplanted Plaur−/− kidney) | podocyte uPAR expression (immunostaining) (57BL/6 and Plaur−/− mice; LPS treated 57BL/6 mice, native 57BL/6 kidney) | podocyte uPAR expression or deposit (immunostaining) (57BL/6 and Plaur−/− mice; LPS treated 57BL/6 mice, transplanted Plaur−/− kidney) | uPAR in podocytes (immunostaining) (57BL/6 and Plaur−/− mice; LPS treated Plaur−/− mice, native Plaur−/− kidney) | uPAR expression (immunostaining) (57BL/6 and Plaur−/− mice; LPS treated Plaur−/− mice, transplanted 57BL/6 kidney) | foot process effacement (TEM) (57BL/6 and Plaur−/− mice; Plaur−/− mice, native Plaur−/− kidney) | foot process effacement (TEM) (57BL/6 and Plaur−/− mice; Plaur−/− mice, transplanted 57BL/6 kidney) | proteinuria caused by uPAR-β3-integrin signaling (αvβ3 integrin) |
| --- | --- | --- | --- | --- | --- | --- | --- | --- | --- |
| lipopolysaccharide [LPS] | significant foot process effacement | massive foot process effacement | increased podocyte uPAR expression | clear uPAR expression or deposit | not any uPAR | increased uPAR expression | not | readily observed |  |
| CC(C)[C@@H]1NC(=O)[C@@H](Cc2ccccc2)NC(=O)[C@H](CC(=O)O)NC(=O)CNC(=O)[C@H](CCCN=C(N)N)NC1=O [cycloRGDfV] |  |  |  |  |  |  |  |  | prevented and reduced; also recorded: blocked |
